From patent US20120202825A1, “Soluble Salts of Thieno [2,3-d] Pyrimidine Derivatives” (priority 2011, published 2012)

Experiments:
cisplatin-induced emesis = experiment: Cisplatin-induced emesis in the ferret; format: in vivo, ferret (Mustela putario furo); settings: 5 mg/kg and 10 mg/kg i.p.
Method: Adult male ferrets (Mustela putario furo) weighing 1200-1880 g were purchased from Triple F Farms (Sayre, Pa.) and housed in individual cages at standardized conditions (12:12 h light/dark cycle and 21-23° C.). Prior to the experiments, the ferrets were allowed a 7-10 day acclimatization period to the animal facility. The ferrets were fed a carnivore diet with free access to food and water throughout the course of the study. The use of the ferret model of emesis and the drug treatment were preapproved in accordance with facility standards. A cisplatin solution was prepared by adding preheated (70° C.) saline to cisplatin powder (Sigma-Aldrich Co.) and stirring or sonicating at 40° C. until dissolved. Following administration of the cisplatin and either MCI-225, ondansetron or vehicle alone, the occurrence of retching and vomiting was monitored for a period of 6 hours. Retching was defined as the number of forceful rhythmic contractions of the abdomen occurring with the animal in characteristic posture, but not resulting in the expulsion of upper gastrointestinal tract contents (Watson et al., British Journal of Pharmacology, 115(1): 84-94 (1994)). […] The latency of the retching or vomiting response and the number of episodes were recorded for each animal and summarized for each experimental group (Wright et al., Infect. Immun., 68(4): 2386-9 (2000)). […]

small intestinal transit = experiment: Small Intestinal Transit Rodent Model (charcoal meal); format: in vivo, rat
Method: Following an overnight fast, rats were brought to the laboratory in their home cages and received an i.p. injection of one of the following: […] Control rats received no treatment. The treated rats were placed back in the home cages and after 30 min, were fed a 2 mL charcoal meal via an oral gavage. Small intestinal transit was measured following 15 min test-period. Each rat was placed briefly in a glass chamber with IsoFlo for anesthesia and sacrificed. The stomach and the small intestine were removed and the total length of the small intestine was measured. Transit was then measured as the distance that the charcoal meal had traveled along the small intestine and expressed as % of the total length. Animals were randomly assigned to experimental groups and experiments were performed as illustrated in Table 3. Ondansetron was supplied from APIN Chemicals LTD. […] MCI-225 was provided by Mitsubishi Pharma Corp. All drugs were dissolved in a vehicle of 100% propylene glycol (1,2-Propanediol) by sonicating for 10 min. Propylene glycol was obtained from Sigma Chemical Co. Ondansetron, a 5-HT3-receptor antagonist was dosed i.p. at 1, 5, and 10 mg/kg. […] All doses were delivered in a final volume of 200 μL. Animals in the vehicle control group received 200 μL of 100% Propylene glycol and animals in the normal control group were untreated. Adult male F-344 rats (230-330 g) were used in the study. The rats were housed 2 per cage under standard conditions. The animals were fed a standard rodent diet and food and water were provided “ad libitum”. Rats were allowed to acclimatize to the animal facility for one week prior to the transit experiments. […] The distance traveled by the charcoal meal was quantified as a percent of the small intestinal length, using the following equation: Transit(%)=cm traveled by meal/cm total small intestinal length×100 […] […] Differences between individual dose groups within treatments and comparisons between drug-treated and vehicle-treated groups were determined using an unpaired t test considering that when % is used as a relative unit, t-statistic is relevant. […]

[1] = tested on: acetic acid-induced colonic hypersensitivity; experiment: Visceromotor response to colorectal distension, acetic acid-induced colonic hypersensitivity; format: in vivo, rat
Method: A 10 min recovery was allowed between distensions.
Adult male rats were used in the study.
Ten minute recovery periods were allowed following each distension.
Statistical significance of the treatment groups was assessed using one-way ANOVA followed by Tukey post-test. […] (*) p<0.05, (**) p<0.01, (***) p<0.001

[2] = tested on: stress-induced accelerated colonic transit; experiment: Water avoidance stress (WAS) fecal pellet output, model of increased colonic transit; format: in vivo, rat
Method: Preliminary testing in the water avoidance stress model confirmed that there exists an association between stress and altered colonic motility. Fecal pellet output was measured by counting the total number of fecal pellets produced during 1 hour of WAS. Using the WAS model, the effect of MCI-225 was compared to the effects of ondansetron (5-HT3 antagonist) or nisoxetine (noradrenaline reuptake inhibitor—NARI) to affect fecal pellet output.
Adult male F-344 rats, supplied by Charles River Laboratories and weighing 270-350 g, were used to complete this study. The rats were housed 2 per cage under standard conditions. Following one to two weeks of acclimatization to the animal facility, the rats were brought to the laboratory and handled daily for another week to acclimatize them to laboratory conditions and to the research associate who performed the studies. All procedures used in this study were approved in accordance with facility standards.
All rats underwent sham stress (1-hour in stress chamber without water) for 2-4 consecutive days before undergoing WAS (sham was performed until rats produced 0-1 pellet per hour for 2 consecutive days). At the end of the 1-hour stress period, the fecal pellets were counted and recorded.
WAS causes an acceleration of colonic transit, which can be quantified by counting the number of fecal pellets, produced during the stress procedure. Rats were placed for 1-hour into a stress chamber onto a raised platform 7.5 cm×7.5 cm×9 cm (L×W×H) in the center of a stress chamber filled with room temperature water 8 cm in depth. The stress chamber was constructed from a rectangular plastic tub (40.2×60.2×31.2 cm).
Control drugs for this study were ondansetron and nisoxetine. Ondansetron was supplied from APIN Chemicals LTD. Nisoxetine was supplied by Tocris. MCI-225 was provided by Mitsubishi Pharma Corp. All drugs were dissolved in a vehicle of 100% propylene glycol (1,2-propanediol) by sonicating for a period of 10 minutes. […]
Statistical significance was assessed using one-way ANOVA followed by Tukey post-test. […]

[3] = Storage at 40° C./75% RH (XRPD, HPLC purity, colour); format: physicochemical; settings: 4 weeks at 40° C./75% RH under ambient light conditions

Cc1nccn1CC1CCc2c(c3ccccc3n2C)C1=O (stereo not drawn) [Ondansetron]
latency of the first emetic response following cisplatin treatment (cisplatin-induced emesis): increase in the latency | number of emetic events induced by cisplatin (cisplatin-induced emesis): dose-dependently reduced | small intestinal transit (small intestinal transit; rats, 1, 5 or 10 mg/kg i.p.): significant reduction | responses to moderate (30 mmHg) and high (60 mmHg) intraluminal pressure ([1]; rats, 10 mg/kg i.p. (highest dose)): did not abolish the responses | behavioral activity of the rats ([1]; rats, 1, 5 or 10 mg/kg i.p.): No significant changes | number of abdominal contractions (visceromotor response to colorectal distension) ([1]; rats, 1, 5 or 10 mg/kg i.p., all distension pressures, vs vehicle): dose-dependent decrease | stress-induced fecal pellet output during 1 hour of WAS ([2]; rats, 1, 5 and 10 mg/kg i.p.): dose-dependent inhibition

4-(2-fluorophenyl)-6-methyl-2-(piperazin-1-yl)thieno[2,3-d]pyrimidine hydrochloride [MCI-225]
colour of material surface after storage [3]: gone yellow

CNCCC(Oc1ccccc1OC)c1ccccc1 (stereo not drawn) [Nisoxetine]
small intestinal transit (small intestinal transit; rats, 30 mg/kg i.p.): almost completely inhibited | small intestinal transit (small intestinal transit; rats, 3 or 10 mg/kg i.p.): tendency to decrease | WAS-induced fecal pellet output during 1 hour ([2]; rats, 3, 10 and 30 mg/kg i.p.): reduced by all doses | fecal pellets produced during WAS compared to the vehicle treated group ([2]; rats, 10 and 30 mg/kg i.p.): significantly fewer
